# Target: T1, ATM (Homo sapiens, UniProt Q13315)
# T1 construct: detecting phosphorylation of Chk2 in a human non-small cell lung cancer cell line NCI-H460 (ATCC company); host or cells: NCI-H460 human non-small cell lung cancer cells
# Assay: ATM inhibition test (phosphorylation of Chk2 generated by ionizing radiation, AlphaScreen SureFire)
# Type: cell-based
# Details: phosphorylated Chk2 in NCI-H460 cells, ionizing radiation 8Gy, 1 hour after test compound treatment; read-out: ATM inhibitory activity
# Method in brief: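 NCI-H460 cells, compound 1 h pre-treatment, 8Gy IR, further 1 h at 37° C in 5% CO2. Read-out: phospho-Chk2 via AlphaScreen SureFire. % inhibition relative to IR-induced signal window (irradiated vs non-irradiated drug-free wells).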
# T1 sequence (Q13315 whole entry): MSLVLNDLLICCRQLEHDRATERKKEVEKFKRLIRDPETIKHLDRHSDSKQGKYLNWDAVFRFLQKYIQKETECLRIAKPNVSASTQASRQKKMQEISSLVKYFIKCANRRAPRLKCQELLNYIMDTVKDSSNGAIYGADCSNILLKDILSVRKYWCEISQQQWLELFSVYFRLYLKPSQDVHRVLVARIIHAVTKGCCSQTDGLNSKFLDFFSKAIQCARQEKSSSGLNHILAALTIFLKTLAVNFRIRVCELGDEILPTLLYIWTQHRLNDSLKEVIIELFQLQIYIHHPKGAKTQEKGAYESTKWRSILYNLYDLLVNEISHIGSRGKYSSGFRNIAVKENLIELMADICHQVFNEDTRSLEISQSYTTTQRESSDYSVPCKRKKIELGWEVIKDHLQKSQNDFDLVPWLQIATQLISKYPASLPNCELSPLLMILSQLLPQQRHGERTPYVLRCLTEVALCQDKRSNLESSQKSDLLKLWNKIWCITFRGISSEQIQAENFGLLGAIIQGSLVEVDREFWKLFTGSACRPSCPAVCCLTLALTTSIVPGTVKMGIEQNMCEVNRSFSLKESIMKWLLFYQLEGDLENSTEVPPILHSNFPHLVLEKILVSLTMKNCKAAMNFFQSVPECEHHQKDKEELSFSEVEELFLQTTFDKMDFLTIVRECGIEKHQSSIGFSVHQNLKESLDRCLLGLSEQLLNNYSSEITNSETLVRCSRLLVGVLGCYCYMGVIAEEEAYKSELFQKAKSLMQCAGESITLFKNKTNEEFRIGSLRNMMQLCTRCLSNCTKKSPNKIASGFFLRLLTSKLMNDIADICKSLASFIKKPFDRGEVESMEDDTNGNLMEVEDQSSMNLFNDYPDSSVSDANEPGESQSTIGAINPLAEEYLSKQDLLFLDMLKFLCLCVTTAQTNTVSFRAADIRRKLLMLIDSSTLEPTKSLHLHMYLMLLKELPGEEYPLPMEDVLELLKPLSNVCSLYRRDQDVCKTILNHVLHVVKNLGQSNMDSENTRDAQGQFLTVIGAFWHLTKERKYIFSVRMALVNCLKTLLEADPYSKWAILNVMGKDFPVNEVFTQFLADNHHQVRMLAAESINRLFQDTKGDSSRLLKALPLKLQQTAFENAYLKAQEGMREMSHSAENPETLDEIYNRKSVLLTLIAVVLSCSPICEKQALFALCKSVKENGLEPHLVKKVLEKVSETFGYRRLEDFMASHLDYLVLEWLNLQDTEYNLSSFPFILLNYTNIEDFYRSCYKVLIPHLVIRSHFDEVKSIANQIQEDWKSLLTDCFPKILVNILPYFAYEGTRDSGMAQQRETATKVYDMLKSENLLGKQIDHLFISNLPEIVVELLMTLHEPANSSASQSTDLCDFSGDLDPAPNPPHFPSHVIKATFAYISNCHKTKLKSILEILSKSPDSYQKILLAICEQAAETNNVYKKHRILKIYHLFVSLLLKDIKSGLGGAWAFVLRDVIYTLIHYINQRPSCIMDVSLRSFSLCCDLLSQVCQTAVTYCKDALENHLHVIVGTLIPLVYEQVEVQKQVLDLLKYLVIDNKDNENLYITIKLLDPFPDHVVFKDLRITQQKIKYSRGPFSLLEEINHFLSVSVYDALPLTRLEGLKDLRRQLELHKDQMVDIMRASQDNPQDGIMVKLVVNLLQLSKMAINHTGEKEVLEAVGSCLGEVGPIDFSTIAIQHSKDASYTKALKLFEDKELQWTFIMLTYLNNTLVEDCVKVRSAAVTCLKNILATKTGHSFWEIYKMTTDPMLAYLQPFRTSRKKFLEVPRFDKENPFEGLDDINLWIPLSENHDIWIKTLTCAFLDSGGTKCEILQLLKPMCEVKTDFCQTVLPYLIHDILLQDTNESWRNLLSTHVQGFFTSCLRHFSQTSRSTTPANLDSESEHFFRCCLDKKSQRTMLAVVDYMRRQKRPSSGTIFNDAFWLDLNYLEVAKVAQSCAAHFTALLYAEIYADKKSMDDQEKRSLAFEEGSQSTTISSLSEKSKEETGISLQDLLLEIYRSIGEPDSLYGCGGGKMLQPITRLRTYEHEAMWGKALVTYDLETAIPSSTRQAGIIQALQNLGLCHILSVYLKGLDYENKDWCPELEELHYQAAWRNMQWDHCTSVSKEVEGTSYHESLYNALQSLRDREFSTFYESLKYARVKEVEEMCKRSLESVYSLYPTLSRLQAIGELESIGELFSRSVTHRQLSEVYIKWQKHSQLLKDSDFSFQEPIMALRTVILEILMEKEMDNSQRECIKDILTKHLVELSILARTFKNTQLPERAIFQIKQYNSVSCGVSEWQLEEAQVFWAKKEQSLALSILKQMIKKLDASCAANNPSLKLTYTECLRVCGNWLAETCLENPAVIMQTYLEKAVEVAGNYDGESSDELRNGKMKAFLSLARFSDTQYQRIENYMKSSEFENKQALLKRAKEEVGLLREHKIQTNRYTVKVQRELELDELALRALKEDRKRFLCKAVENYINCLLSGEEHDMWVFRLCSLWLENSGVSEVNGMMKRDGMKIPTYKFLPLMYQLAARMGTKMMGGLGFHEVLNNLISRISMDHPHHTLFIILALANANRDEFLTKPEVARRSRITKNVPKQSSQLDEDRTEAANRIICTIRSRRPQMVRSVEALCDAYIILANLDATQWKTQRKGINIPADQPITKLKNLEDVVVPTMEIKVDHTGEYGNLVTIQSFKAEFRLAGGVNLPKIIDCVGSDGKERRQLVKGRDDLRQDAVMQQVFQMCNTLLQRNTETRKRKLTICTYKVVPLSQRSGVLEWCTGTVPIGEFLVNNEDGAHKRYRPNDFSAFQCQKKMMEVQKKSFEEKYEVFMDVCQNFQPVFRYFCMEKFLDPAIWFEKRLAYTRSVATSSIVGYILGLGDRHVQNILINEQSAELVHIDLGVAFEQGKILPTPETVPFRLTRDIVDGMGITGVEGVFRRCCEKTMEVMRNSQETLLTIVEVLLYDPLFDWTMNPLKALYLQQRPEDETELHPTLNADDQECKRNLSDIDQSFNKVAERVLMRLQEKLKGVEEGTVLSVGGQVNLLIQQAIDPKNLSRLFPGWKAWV
row,SMILES,IC50 [nM]
1,"Nc1ccc2c(c1)Sc1cccc(-c3cc(N4CCOCC4)cc(=O)[nH]3)c1O2 [Example 4-2, 6-(8-Aminophenoxathiin-4-yl)-4-morpholinopyridin-2(1H)-one]",100 to 500
2,"Cc1cc(CNc2ccc3c(c2)Sc2cccc(-c4cc(N5CCOCC5)cc(=O)[nH]4)c2O3)ccn1 [Example 4-4-3, 6-(8-(((2-Methylpyridin-4-yl)methyl)amino)phenoxathiin-4-yl)-4-morpholino pyridin-2 (1H)-one]",100 to 500
3,"Cn1cc(-c2cncc(CNc3ccc4c(c3)Sc3cccc(-c5cc(N6CCOCC6)cc(=O)[nH]5)c3O4)c2)cn1 [Example 4-4-11, 6-(8-(((5-(1-Methyl-1H-pyrazol-4-yl)pyridin-3-yl)methyl)amino)phenoxathiin-4-yl)-4-morpholino pyridin-2 (1H)-one]",100 to 500
4,O=c1cc(N2CCOCC2)cc(-c2cccc3c2Oc2ccc(NCc4cnccc4Cl)cc2S3)[nH]1 [Example 4-4-18],100 to 500
5,"Cc1ccncc1CNc1ccc2c(c1)Sc1cccc(-c3cc(N4CCOCC4)cc(=O)[nH]3)c1O2 [Example 4-4-19, 6-(8-(((4-Methylpyridin-3-yl)methyl)amino)phenoxathiin-4-yl)-4-morpholino pyridin-2(1H)-one]",100 to 500
6,"O=c1cc(N2CCOCC2)cc(-c2cccc3c2Oc2ccc(NCc4cccc(C5CC5)n4)cc2S3)[nH]1 [Example 4-4-21, 6-(8-(((6-Cyclopropylpyridin-2-yl)methyl)amino)phenoxathiin-4-yl)-4-morpholino pyrdin-2(1H)-one]",100 to 500
7,"COc1cnccc1CNc1ccc2c(c1)Sc1cccc(-c3cc(N4CCOCC4)cc(=O)[nH]3)c1O2 [Example 4-4-23, 6-(8-(((3-Methoxypyridin-4-yl)methyl)amino)phenoxathiin-4-yl)-4-morpholino pyridin-2(1H)-one]",100 to 500
8,"O=c1cc(N2CCOCC2)cc(-c2cccc3c2Oc2ccc(NCc4ccccn4)cc2S3)[nH]1 [Example 4-4-24, 4-Morpholino-6-(8-((pyridin-2-ylmethyl)amino)phenoxathiin-4-yl) pyridin-2(1H)-one]",100 to 500
9,"CCCC(Nc1ccc2c(c1)Sc1cccc(-c3cc(N4CCOCC4)cc(=O)[nH]3)c1O2)c1cncc(OC)c1 (stereo not drawn) [Example 4-4-26, 6-(8-((1-(5-Methoxypyridin-3-yl)butyl)amino)phenoxathiin-4-yl)-4-morpholino pyridin-2(1H)-one]",100 to 500
10,"CCC(Nc1ccc2c(c1)Sc1cccc(-c3cc(N4CCOCC4)cc(=O)[nH]3)c1O2)c1cncc(OC)c1 (stereo not drawn) [Example 4-4-27, 6-(8-((1-(5-Methoxypyridin-3-yl)propyl)amino)phenoxathiin-4-yl)-4-morpholino pyridin-2(1 H)-one]",100 to 500
11,"O=c1cc(N2CCOCC2)cc(-c2cccc3c2Oc2ccc(NC4CCCNC4)cc2S3)[nH]1 (stereo not drawn) [Example 4-5, 4-morpholino-6-(8-(piperidin-3-ylamino)phenoxathiin-4-yl)pyridin-2(1H)-one]",500 to 2000
12,O=c1cc(N2CCOCC2)cc(-c2cccc3c2Oc2ccc(NC4CCCN(CCc5ccccc5)C4)cc2S3)[nH]1 (stereo not drawn) [Example 4-6-3],100 to 500
13,"CN1CCC(Nc2ccc3c(c2)Sc2cccc(-c4cc(N5CCOCC5)cc(=O)[nH]4)c2O3)CC1 [Example 4-8-2, 6-(8-((1-Methylpiperidin-4-yl)amino)phenoxathiin-4-yl)-4-morpholino pyridin-2(1H)-one]",100 to 500
14,"CC(C)(C)OC(=O)N1CCC(Nc2ccc3c(c2)Sc2cccc(-c4cc(N5CCOCC5)cc(=O)[nH]4)c2O3)CC1 [Example 4-8-3, tent-Butyl 4-((6-(4-morpholino-6-oxo-1,6-dihydropyridin-2-yl)phenoxathiin-2-yl)amino) piperidin-l-carboxylate]",100 to 500
15,"O=c1cc(N2CCOCC2)cc(-c2cccc3c2Oc2ccc(NCc4cncc(C5CC5)c4)cc2S3)[nH]1 [Example 4-8-7, 6-(8-(((5-Cyclopropylpyridin-3-yl)methyl)amino)phenoxathiin-4-yl)-4-morpholino pyridin-2(1H)-one]",100 to 500
16,"COc1ccncc1CNc1ccc2c(c1)Sc1cccc(-c3cc(N4CCOCC4)cc(=O)[nH]3)c1O2 [Example 4-8-10, 6-(8-(((4-Methoxypyridin-3-yl)methyl)amino)phenoxathiin-4-yl)-4-morpholino pyridin-2(1H)-one]",100 to 500

# Next, values leading:
row,IC50 [nM],SMILES
1,500 to 2000,"O=c1cc(N2CCOCC2)cc(-c2cccc3c2Oc2ccc([N+](=O)[O-])cc2S3)[nH]1 [Example 4-1, 4-Morpholino-6-(8-nitrophenoxathiin-4-yl)pyridin-2(1H)-one]"
2,100 to 500,"Nc1cccc2c1Sc1cccc(-c3cc(N4CCOCC4)cc(=O)[nH]3)c1O2 [Example 4-3, 6-(9-Aminophenoxathiin-4-yl)-4-morpholinopyridin-2(1H)-one]"
3,100 to 500,"COc1cncc(C(C)Nc2ccc3c(c2)Sc2cccc(-c4cc(N5CCOCC5)cc(=O)[nH]4)c2O3)c1 (stereo not drawn) [Example 4-4-1, 6-(8-((1-(5-Methoxypyridin-3-yl)ethyl)amino)phenoxathiin-4-yl)-4-morpholinopyridin-2(1H)-one]"
4,100 to 500,"CN(C)c1ncc(CNc2ccc3c(c2)Sc2cccc(-c4cc(N5CCOCC5)cc(=O)[nH]4)c2O3)cn1 [Example 4-4-5, 6-(8-(((2-(Dimethylamino)pyrimidin-5-yl)methyl)amino)phenoxathiin-4-yl)-4-morpholino pyridin-2 (1H)-one]"
5,100 to 500,"O=c1cc(N2CCOCC2)cc(-c2cccc3c2Oc2ccc(NCc4cncc(-c5cccnc5)c4)cc2S3)[nH]1 [Example 4-4-10, 6-(8-(([3,3′-Bipyridin)-5-ylmethyl)amino)phenoxathiin-4-yl)-4-morpholino pyridin-2(1H)-one]"
6,100 to 500,"O=c1cc(N2CCOCC2)cc(-c2cccc3c2Oc2ccc(NC4CCN(CCc5ccccc5)C4)cc2S3)[nH]1 (stereo not drawn) [Example 4-6-1, 4-Morpholino-6-(8-((1-phenethylpyrrolidin-3-yl)amino)phenoxathiin-4-yl)pyridin-2(1H)-one]"
7,100 to 500,"O=c1cc(N2CCOCC2)cc(-c2cccc3c2Oc2ccc(NC4CCCN(CCc5ccccc5)CC4)cc2S3)[nH]1 (stereo not drawn) [Example 4-6-2, 4-Morpholino-6-(8-((1-phenethylazepan-4-yl)amino)phenoxathiin-4-yl)pyridin-2(1H)-one]"
8,100 to 500,"COc1ccc(CCN2CCCC(Nc3ccc4c(c3)Sc3cccc(-c5cc(N6CCOCC6)cc(=O)[nH]5)c3O4)CC2)cc1 (stereo not drawn) [Example 4-7, 6-(8-((1-(4-Methoxyphenethyl)azepan-4-yl)amino)phenoxathiin-4-yl)-4-morpholinopyridin-2(1H)-one]"
9,100 to 500,"COc1cc(CNc2ccc3c(c2)Sc2cccc(-c4cc(N5CCOCC5)cc(=O)[nH]4)c2O3)ccn1 [Example 4-8-4, 6-(8-(((2-Methoxypyridin-4-yl)methyl)amino)phenoxathiin-4-yl)-4-morpholino pyridin-2(1H)-one]"
10,100 to 500,"O=c1cc(N2CCOCC2)cc(-c2cccc3c2Oc2ccc(NCc4cncc(Cl)c4)cc2S3)[nH]1 [Example 4-8-6, 6-(8-(((5-Chloropyridin-3-yl)methyl)amino)phenoxathiin-4-yl)-4-morpholino pyridin-2(1H)-one]"
11,100 to 500,"COc1ncccc1CNc1ccc2c(c1)Sc1cccc(-c3cc(N4CCOCC4)cc(=O)[nH]3)c1O2 [Example 4-8-9, 6-(8-(((2-Methoxypyridin-3-yl)methyl)amino)phenoxathiin-4-yl)-4-morpholino pyridin-2 (1H)-one]"
